Laboratory results: patent publication US20210179577A1, “AROMATIC SULFONAMIDE DERIVATIVES FOR THE TREATMENT OF ISCHEMIC STROKE” (Bayer Aktiengesellschaft, priority 2017, published 2021)
Where “and” joins values, the source holds several entries; their conditions need not be identical. Identical values can stand only once.

Biological target: T1, endogenous P2X4 channels (Homo sapiens, UniProt Q99571)
T1 construct: measure calcium influx through endogenous P2X4 channels into primary human monocytes; endogenous in cells; host or cells: primary human monocytes isolated from donor PBMCs
T1 sequence (Q99571 1-388): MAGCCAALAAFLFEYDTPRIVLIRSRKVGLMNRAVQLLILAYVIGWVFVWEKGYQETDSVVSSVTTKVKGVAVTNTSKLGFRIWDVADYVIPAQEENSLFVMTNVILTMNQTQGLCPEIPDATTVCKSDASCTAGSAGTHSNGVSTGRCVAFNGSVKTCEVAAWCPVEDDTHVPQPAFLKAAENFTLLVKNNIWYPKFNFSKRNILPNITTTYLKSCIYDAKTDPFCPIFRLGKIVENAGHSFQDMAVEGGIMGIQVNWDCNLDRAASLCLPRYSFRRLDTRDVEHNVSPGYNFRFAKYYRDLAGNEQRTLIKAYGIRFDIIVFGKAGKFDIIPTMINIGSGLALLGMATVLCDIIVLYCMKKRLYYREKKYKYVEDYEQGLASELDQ
Assay: Human Monocyte P2X4 Assay (FLIPR)
Assay type: cell-based
Conditions: primary human monocytes, 3 μM BzATP, one value per donor; for IC50: read-out: Human P2X4 Monocytes (FLIPR Assay) IC50 for different donors; for Emax: read-out: Human P2X4 Monocytes (FLIPR Assay) Efficacy for different donors
Procedure: The principle of the assay is to measure calcium influx through endogenous P2X4 channels into primary human monocytes, following activation by 2′,3′-O-(4-benzoyl-benzoyl)-ATP (Bz-ATP). Intracellular calcium concentration changes were measured with a Flipr™ (Molecular Devices) device using a calcium sensitive dye (Fluo-8). In primary monocytes P2X4 is located at the lysosome membrane, therefore exocytosis has to be triggered to expose P2X4 at the cellular membrane.
Human peripheral blood mononuclear cells (PBMCs) from anticoagulated blood (blood cells, BC) were isolated via density gradient centrifugation. Whole blood was diluted 1:3 with PBS. Samples of 30 mL were layered carefully on top of 15 mL Biocoll (BIOCHROM) in 50 mL centrifuge tubes (Falcon). Tubes were centrifuged at 914×g for 25 min at RT without brake. The PBMC layer was removed with a 10 mL pipette and transferred into tubes with ice-cold PBS in a total volume of 50 mL. Cells were washed twice by pelleting at 300×g at 4° C., for 10 min and for 5 min respectively. PBMCs were re-suspended in 10 mL medium (X-vivo, Biozym Scientific) and counted in a Neubauer chamber.
Monocytes were isolated by negative selection using the Monocyte isolation kit II from Miltenyi (#130-091-153) according to the instructions. Isolation should be done fast and cells and solutions should be kept on ice at any time. PBMCs in batches of 10exp8 cells were pelleted (300×g, 10 min) and re-suspended with 300 μL MACS buffer in a 50 mL Falcon tube. FcR Blocking reagent (100 μl) and Biotin-Ab (100 μl) were added, mixed and incubated on ice for 10 min. MACS buffer (300 μL) and anti-Biotin Micro-beads (100 μL) were added, mixed and incubated on ice for 15 min. Cells were washed by pelleting (300×g for 10 min) and re-suspended in 500 μL MACS buffer. For each batch one separation column was placed in the MACS separator and rinsed with 3 mL MACS buffer. The cell suspension was added to the column, followed by 3×3 mL MACS buffer for washing, and the eluent containing the monocytes was collected. Cells were pelleted (300×g for 10 min), re-suspended in X-vivo medium and counted. Monocytes were seeded into fibronectin-coated micro-plates (384-well, black, flat transparent bottom; Corning #3848) at a density of 30,000 cells/well in 50 μL, and cultivated over night (37° C., 5% CO2).
Test substances were dissolved in 100% DMSO at a stock concentration of 10 mM and stored at −20° C. in aliquots. Serial dilutions (2×) were prepared in DMSO and diluted 500× with assay buffer to generate the antagonist plate. In the Flipr measurement, 10 μL per well were transferred (4× dilution) and a final top concentrations of 5 μM and 0.05% DMSO were obtained in the assay. Agonist BzATP was stored at 10 mM in aliquots and diluted to an intermediate concentration of 15 μM to generate the agonist plate. In the Flipr measurement, 10 μL per well were transferred (5× dilution) so that a final assay concentration of 3 μM was obtained.
For the experiment, the medium of the cell plate was discarded manually and 70 μL/well loading buffer was added and incubated for 1 h (37° C., 5% CO2). Loading buffer contained HBSS (w/o calcium/magnesium), 10 mM Hepes pH 7.4, 5 μM Fluo-8 (AM) (Tebu-bio) and 50 mM methylamine (Sigma) to trigger exocytosis. Loading buffer was discarded manually and 30 μL/well low-calcium assay buffer (5 mM KCl, 145 mM NaCl, 0.5 mM CaCl2), 13 mM glucose, 10 mM Hepes pH 7.4) was added. The antagonist plate was transferred (10 μL/well) and after 15 min at RT the agonist plate (10 μL/well) was transferred.
Agonist addition was recorded for 240 seconds after a 10 second baseline. For analysis, a baseline correction was applied, and the maximum of the curve was extracted. Data were normalized towards 0% inhibition (signal at 3 μM BzATP) and 100% inhibition (absence of BzATP stimulation) and fitted with a four-parameter sigmoidal inhibition curve using Prism Graph Pad to obtain IC50 values.

NS(=O)(=O)c1cc(NC(=O)Cc2ccccc2Cl)ccc1-n1cc(C(F)(F)F)cn1 [Example 19, 2-(2-Chlorophenyl)-N-{3-sulfamoyl-4-[4-(trifluoromethyl)-1H-pyrazol-1-yl]phenyl}acetamide]
IC50: 59 nM (2×) and 21 nM and 76 nM and 45 nM

NS(=O)(=O)c1cc(NC(=O)Cc2ccccc2Cl)ccc1-n1cc(F)cn1 [Example 26, 2-(2-Chlorophenyl)-N-[4-(4-fluoro-1H-pyrazol-1-yl)-3-sulfamoylphenyl]acetamide]
Emax: 71% | IC50: 0.29 µM and 0.182 µM

N#Cc1cnn(-c2ccc(NC(=O)Cc3ccccc3Cl)cc2S(N)(=O)=O)c1 [Example 39, 2-(2-Chlorophenyl)-N-[4-(4-cyano-1H-pyrazol-1-yl)-3-sulfamoylphenyl]acetamide]
Emax: 88% | IC50: 0.105 µM and 0.032 µM and 0.071 µM

NS(=O)(=O)c1cc(NC(=O)Cc2ccccc2Cl)ccc1-c1cnn(C(F)F)c1 [Example 326, 2-(2-Chlorophenyl)-N-{4-[1-(difluoromethyl)-1H-pyrazol-4-yl]-3-sulfamoylphenyl}acetamide]
IC50: 0.407 µM and 0.167 µM and 0.149 µM and 0.045 µM and 0.049 µM

NS(=O)(=O)c1cc(NC(=O)Cc2ccccc2Cl)cnc1-n1cc(C(F)(F)F)cn1 [Example 380, 2-(2-Chlorophenyl)-N-{5-sulfamoyl-6-[4-(trifluoromethyl)-1H-pyrazol-1-yl]pyridin-3-yl}acetamide]
IC50: 0.263 µM and 0.251 µM and 0.434 µM and 0.093 µM and 0.05 µM and 0.207 µM
